Where a name gives a salt, the structure may show the parent alone. Read-outs that look alike come from different tables or passages of the source.

Four compounds from US5891909A, “Amidinohydrazones as protease inhibitors” (3-Dimensional Pharmaceuticals, Inc., priority 1997, dated 1999) can be followed below.

Common to all, as to format: biochemical
One assay has as its target T1, human α-thrombin (Homo sapiens, UniProt P00734).
T1 construct: Human α-thrombin, human factor Xa and human plasmin were obtained from Enzyme Research Laboratories; purchased Enzyme Research Laboratories (South Bend, Ind.)
Description: Thrombin inhibition, Ki determination (hydrolysis of N-succinyl-Ala-Ala-Pro-Arg-p-nitroanilide). The following applies: pH 7.5, 37° C. The source says: (§1) All buffer salts were obtained from Sigma Chemical Company (St. Louis, Mo.), and were of the highest purity available. The enzyme substrates, N-benzoyl-Phe-Val-Arg-p-nitroanilide (Sigma B7632), N-benzoyl-Ile-Glu-Gly-Arg-p-nitroanilide hydrochloride (Sigma B2291), N-p-Tosyl-Gly-Pro-Lys-p-nitroanilide (Sigma T6140), N-succinyl-Ala-Ala-Pro-Phe-p-nitroanilide (Sigma S7388) and N-CBZ-Val-Gly-Arg-p-nitroanilide (Sigma C7271) were obtained from Sigma.
Human α-thrombin, human factor Xa and human plasmin were obtained from Enzyme Research Laboratories (South Bend, Ind.). Bovine α-chymotrypsin (Sigma C4129), bovine trypsin (Sigma T8642) and human kidney cell urokinase (Sigma U5004) were obtained from Sigma. Human leukocyte elastase was obtained from Elastin Products (Pacific, Mo.).
All assays are based on the ability of the test compound to inhibit the enzyme catalyzed hydrolysis of a peptide p-nitroanilide substrate. […] The final concentrations for each of the substrates is listed below. In general, substrate concentrations are lower than the experimentally determined value for Km. Test compounds are prepared as a 1.0 mg/ml solution in DMSO. Dilutions are prepared in DMSO yielding 8 final concentrations encompassing a 200 fold concentration range. Enzyme solutions are prepared at the concentrations listed below in assay buffer.
Data corresponding to less than 10% of the total substrate hydrolysis were used in the calculations. The ratio of the velocity (rate of change in absorbance as a function of time) for a sample containing no test compound is divided by the velocity of a sample containing test compound, and is plotted as a function of test compound concentration. The data are fit to a linear regression, and the value of the slope of the line calculated. The inverse of the slope is the experimentally determined Ki value.
Thrombin activity was assessed as the ability to hydrolyze the substrate N-succinyl-Ala-Ala-Pro-Arg-p-nitroanilide.

The subject of the next assay is human factor Xa. Nature of the assay: Factor Xa inhibition (hydrolysis of N-benzoyl-Ile-Glu-Gly-Arg-p-nitroanilide). The following applies: at 1.6 μM.
From the text: as §1, with “Sigma. N-succinyl-Ala-Ala-Pro-Arg-p-nitroanilide (BACHEM L-1720) and N-succinyl-Ala-Ala-Pro-Val-p-nitroanilide (BACHEM L-1770) were obtained from BACHEM (King of Prussia, Pa.). […]” for “Sigma.”
(§2) All assays are based on the ability of the test compound to inhibit the enzyme catalyzed hydrolysis of a peptide p-nitroanilide substrate. […] In general, substrate concentrations are lower than the experimentally determined value for Km. […]
(§3) In a typical Ki determination, into each well of a 96 well plate is pipetted 280 μL of substrate solution, 10 μL of test compound solution, and the plate allowed to thermally equilibrate at 37° C. in a Molecular Devices plate reader for >15 minutes. Reactions were initiated by the addition of a 10 μL aliquot of enzyme and the absorbance increase at 405 nm is recorded for 15 minutes. […] The data are fit to a linear regression, and the value of the slope of the line calculated. The inverse of the slope is the experimentally determined Ki value. […]

The next assay has as its system human plasmin. Nature of the assay: Plasmin inhibition (hydrolysis of N-p-Tosyl-Gly-Pro-Lys-p-nitroanilide). The settings on record: at 1.6 μM.
From the text: as §1, with “Sigma. N-succinyl-Ala-Ala-Pro-Arg-p-nitroanilide (BACHEM L-1720) and N-succinyl-Ala-Ala-Pro-Val-p-nitroanilide (BACHEM L-1770) were obtained from BACHEM (King of Prussia, Pa.). […]” for “Sigma.”
as §2, §3

In the next assay the test system is human kidney urokinase. Description: Urokinase inhibition (hydrolysis of N-CBZ-Val-Gly-Arg-p-nitroanilide). The following applies: at 1.6 μM.
From the text: as §1, with “Sigma. N-succinyl-Ala-Ala-Pro-Arg-p-nitroanilide (BACHEM L-1720) and N-succinyl-Ala-Ala-Pro-Val-p-nitroanilide (BACHEM L-1770) were obtained from BACHEM (King of Prussia, Pa.). […]” for “Sigma.”
as §2, §3

For another assay, the system named is human leukocyte elastase. Nature of the assay: Elastase inhibition (hydrolysis of N-succinyl-Ala-Ala-Pro-Val-p-nitroanilide). The following applies: at 1.6 μM.
From the text: as §1, with “Sigma. N-succinyl-Ala-Ala-Pro-Arg-p-nitroanilide (BACHEM L-1720) and N-succinyl-Ala-Ala-Pro-Val-p-nitroanilide (BACHEM L-1770) were obtained from BACHEM (King of Prussia, Pa.). […]” for “Sigma.”
as §2, §3

In a further assay the test system is bovine trypsin. Nature of the assay: Trypsin inhibition (hydrolysis of N-benzoyl-Phe-Val-Arg-p-nitroanilide). The settings on record: at 1.6 μM.
From the text: as §1, with “Sigma. N-succinyl-Ala-Ala-Pro-Arg-p-nitroanilide (BACHEM L-1720) and N-succinyl-Ala-Ala-Pro-Val-p-nitroanilide (BACHEM L-1770) were obtained from BACHEM (King of Prussia, Pa.). […]” for “Sigma.”
as §2, §3

The next assay relates to bovine α-chymotrypsin. Description: Chymotrypsin inhibition (hydrolysis of N-succinyl-Ala-Ala-Pro-Phe-p-nitroanilide). The following applies: at 1.6 μM.
From the text: as §1, with “Sigma. N-succinyl-Ala-Ala-Pro-Arg-p-nitroanilide (BACHEM L-1720) and N-succinyl-Ala-Ala-Pro-Val-p-nitroanilide (BACHEM L-1770) were obtained from BACHEM (King of Prussia, Pa.). […]” for “Sigma.”
as §2, §3

A word on the Ki: it is a measure of affinity in units of concentration, obtained from inhibition or displacement. Turning to `Cc1cc(OCCC=NNC(=N)N)cc(OS(=O)(=O)c2ccccc2Cl)c1` [Example 1, 2-[2-[3-(2-Chlorophenylsulfonyloxy)-5-methylphenoxy]ethyl-1-methylene]hydrazinecarboximidamide hydrochloride], the inhibitory constant (Ki) on human α-thrombin (Table 2, read-out: Ki (thrombin)) worked out at 13 nM. For the same compound, in the assay with human factor Xa, the “% Inhibition (Factor Xa)” value was determined as 0%. For the same compound, in the assay with human plasmin, the “% Inhibition (plasmin)” value is reported as 0%. Further, the “% Inhibition (urokinase)” value in the assay on human kidney urokinase is on record as 0%. The “% Inhibition (elastase)” value in the assay with human leukocyte elastase is given as 0%. Moreover, in the assay with bovine trypsin, the “% Inhibition (trypsin)” value turned out to be 0%. Moreover, the “% Inhibition (chymotrypsin)” value in the assay with bovine α-chymotrypsin is 0%.
Regarding `Cc1cc(OCCC=NNC(=N)N)cc(OS(=O)(=O)c2ccccc2C#N)c1` [Example 13, 2-[2-[3-(2-Cyanophenylsulfonyloxy)-5-methylphenoxy]ethyl-1-methylene]hydrazinecarboximidamide hydrochloride], on human α-thrombin (Table 1, read-out: Thrombin Ki), the Ki is 14 nM.
Regarding `Cc1cc(OCCC=NNC(=N)N)cc(OS(=O)(=O)c2cc(C(F)(F)F)ccc2Cl)c1` [Example 26, 2-[2-[3-(2-Chloro-5-trifluoromethylphenylsulfonyloxy)-5-methylphenoxy]ethyl-1-methylene]hydrazinecarboximidamide nitrate], the Ki on human α-thrombin (Table 1, read-out: Thrombin Ki) came out at 1540 nM.
On to `Cc1cc(OCCC=NNC(=N)N)cc(N(CCCCc2ccccc2)S(=O)(=O)c2ccccc2C(F)(F)F)c1` [Example 31, 2-[2-[(3-Methyl-5-(N-(4-phenylbutyl)-N-(2-trifluoromethylphenylsulfonyl))amino)phenoxy]ethyl-1-methylene]hydrazinecarboximidamide acetate], for which the inhibition constant Ki at human α-thrombin (Table 1, read-out: Thrombin Ki) turned out to be 69.2 nM.
